Values of other authors as cited in PMC2981068 (Journal of medicinal chemistry, 2010).
Marks after values point to notes of the source that are not given here.

What was measured:
[1] = test system: E. faecalis (VanA, strain BM4166), vancomycin- and teicoplanin-resistant; details: footnotes d, ref [7]–[8], [4]
[2] = test system: E. faecalis (VanB, strain ATCC 51299), vancomycin-resistant and teicoplanin-sensitive; details: footnotes d, ref [7]–[8], [4]
[3] = test system: Enterocococci bacterial strains (VanA and VanB); details: resistant vs sensitive bacteria; ref [1d]
[4] = test system: Staphylococcus aureus (strain ATCC 25923), vancomycin-sensitive; details: reference not given, ref [1a],[6] as in b5
[5] = computationally determined, relative to 2 with ligand 3; ref [11]

Substance | MIC E. faecalis (VanA) (value in parentheses) [1] | MIC E. faecalis (VanB) (value in parentheses) [2] [µg/mL] | drop in antimicrobial activity on D-Ala to D-Lac change [3] [fold] | MIC for sensitive strain (comparator in text) [4] [µg/mL] | ΔΔGb cal, ligand 3 [5]
Vancomycin [Compound 1] | 2000 (2000) ^e μg/mL | 125 | 1000 |  | 
chlorobiphenyl vancomycin [Compound 8] |  |  |  | 0.03 | 
vancomycin aglycon [Compound 2] | 640 (640) ^d, ^e μg/mL | 80 |  |  | 0.0 (0.0) ^d kcal/mol
